Where two headings read alike, the source gives them in different places. One block for each compound: values may come before it.
Experiments:
[1] = tested on: human colon cancer cell line HCT116; assay: Synergistic effect with camptothecin (CPT) based on cell viability; conditions: list in description
Protocol: The synergistic effects of the TDP1 inhibitors with CPT were tested in human colon cancer cell line HCT116 based on cell viability (Table 3, FIGS. 2-5). Cells were first seeded in a 384-well black-clear plate until 30% confluency and then incubated with a serial dilution of CPT at the range of 0-100 nM in the present or the absence of TDP1 inhibitors for 72 h at 37° C. Viable cell numbers were counted from the brightfield images taken by Biotek Cytation 5 (FIGS. 2-3). Fractional affect (Fa) and combination index (Ci) were analyzed with CompuSyn software. Synergistic scores of each TDP1 inhibitors were calculated and collected based on the data analysis from SynergyFinder (FIG. 4). […]

TDP2 [2] = target: T1, TDP2 (Homo sapiens (Human), UniProt O95551); assay: gel-based TDP2 fluorescence assay in vitro; type: biochemical
T1 sequence (O95551 whole entry, species assumed): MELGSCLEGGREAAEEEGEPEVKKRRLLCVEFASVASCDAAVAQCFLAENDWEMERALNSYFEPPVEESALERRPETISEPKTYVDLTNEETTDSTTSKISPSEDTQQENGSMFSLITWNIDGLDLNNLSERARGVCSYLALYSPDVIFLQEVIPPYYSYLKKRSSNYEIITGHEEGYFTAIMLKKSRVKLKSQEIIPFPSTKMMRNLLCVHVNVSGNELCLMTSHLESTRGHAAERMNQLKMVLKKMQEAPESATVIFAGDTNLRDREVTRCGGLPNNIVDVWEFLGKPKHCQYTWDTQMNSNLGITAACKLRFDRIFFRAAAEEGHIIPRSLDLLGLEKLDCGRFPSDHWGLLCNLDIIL

TOP1 = TOP1 (Homo sapiens (Human), UniProt P11387); assay: Degradation of TOP1 in cells (western blotting); type: cell-based; conditions: list in description
TDP1 [3] = target: T2, TDP1 (Homo sapiens (Human), UniProt Q9NUW8); assay: gel-based TDP1 fluorescence assay of unpurified oxime libraries at 100 μM; type: biochemical; conditions: 100 μM in DMSO, oximes without purification
T2 sequence (Q9NUW8 whole entry): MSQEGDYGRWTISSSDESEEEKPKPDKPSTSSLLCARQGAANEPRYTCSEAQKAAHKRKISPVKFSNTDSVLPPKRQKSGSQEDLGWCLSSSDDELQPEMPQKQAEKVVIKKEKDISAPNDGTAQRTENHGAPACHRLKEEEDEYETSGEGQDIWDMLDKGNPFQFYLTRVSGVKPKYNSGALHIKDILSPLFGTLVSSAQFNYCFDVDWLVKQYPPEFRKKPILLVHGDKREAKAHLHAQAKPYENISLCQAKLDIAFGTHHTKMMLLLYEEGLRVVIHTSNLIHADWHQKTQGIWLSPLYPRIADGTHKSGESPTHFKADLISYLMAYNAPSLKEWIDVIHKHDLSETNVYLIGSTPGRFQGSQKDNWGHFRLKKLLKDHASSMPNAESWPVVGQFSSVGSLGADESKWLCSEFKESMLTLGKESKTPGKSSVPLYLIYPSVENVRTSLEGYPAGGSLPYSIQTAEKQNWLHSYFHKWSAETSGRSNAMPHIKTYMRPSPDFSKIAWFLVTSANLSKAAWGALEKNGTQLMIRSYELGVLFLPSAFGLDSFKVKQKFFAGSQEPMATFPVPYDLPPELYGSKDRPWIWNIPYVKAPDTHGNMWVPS
Protocol: The oximes were evaluated by gel-based TDP1 fluorescence assay in a concentration of 100 μM in DMSO. The fluorescence of DMSO blank vial was set as 0 and the fluorescence for the reference without TDP1 was set as 100%. Preparation: A mixture of aminooxy-containing 105 or 106 (10 μL, 30 mM in DMSO), aldehydes M1-T12 (10 μL, 30 mM in DMSO) and acetic acid (10 μL, 150 mM in DMSO) were agitated at room temperature overnight. Oximes 5-M1-T12 or 6-M1-T12 (30 uL, 10 mM in DMSO) were afforded.
Two set of oximes 105-X and 106-Y (XZ700-M1-T12, XZ699-M1-T12) ([…], 10 mM in DMSO) were prepared about 240 each starting from aminooxy-containing 105 (XZ700) or 106 (XZ699) based on the following method. A mixture of aminooxy-containing 105 or 106 (10 μL, 30 mM in DMSO) with about 240 aldehydes M1-T12 (10 μL, 30 mM in DMSO) (Table 4) separately in the present of acetic acid (10 μL, 150 mM in DMSO) were agitated at room temperature overnight in three 96-well plates in parallel. The formed oximes 105-M1 to 105-T12 and 106-M1 to 106-T12 (30 uL, 10 mM in DMSO) were diluted to 100 μM in DMSO and evaluated by gel-based TDP1 fluorescence assay. The fluorescence of the gel band of DMSO blank vial was set as 0 and the fluorescence for the reference gel band without TDP1 was set as 100%. […] Among them, with same aldehyde structures D1 and P3, both oximes 105-series (105-D1, 105-P3) and 106-series (106-D1, 106-P3) show great (>90%) TDP1 inhibition. […] To confirm the inhibitions, we have further evaluated the purified lead oximes by HPLC. (Table 7; FIG. 9)

TDP1 [4] = target: T2, TDP1; assay: TDP1 gel-based in vitro fluorescence assay; type: biochemical
TDP1 [5] = target: T2, TDP1; assay: Degradation assay (western blotting) of TDP1 in HCT116 and HEK293 cells; type: cell-based; conditions: for TDP1 degrading activity: list in description
Protocol: The degradation effect of the TDP1 inhibitors on TDP1 in human colon cancer cell line HCT116 and embryonic kidney cell line HEK293 were studied. Cells were first seeded in a 6-well plate until 60-80% confluency and then incubated with a serial dilution of TDP1 inhibitors at the range of 25-200 μM for 24-72 h at 37° C. […] Samples were then sonicated at 30% for 10 s and centrifuged for 15 min at 15000 rpm at 4 Celsius. Supernatant were collected and the concentration of total protein were measured by BCA Protein Assay Kit according to its protocols. Four micrograms of total protein for each sample were loaded and TDP1 level were conducted by western blotting.

TDP2 [6] = target: T1, TDP2; assay: TDP2 degrading activity as stated in the description; conditions: list in description
[7] = Table 8, lead compounds with different linkers, read-out: TDP2 IC50
[8] = purified oximes and SMM leads, read-out: TDP1 IC50
[9] = Table 7, HPLC-purified oxime leads, read-out: TDP2 IC50
[10] = Table 7, ratio of IC50 TDP2 to TDP1
[11] = Table 8, lead compounds with different linkers, read-out: TDP1 IC50
[12] = Table 8, ratio of IC50 TDP2 to TDP1

Compound: 4-((2-(4-(2-((4-(5-((λ^2-Azaneylidene)-λ^3-methyl)pyridin-2-yl)phenyl)methoxy)ethyl)phenyl)-7-phenylimidazo[1,2-a]pyridin-3-yl)amino)benzoic acid [XZ726]
- synergy with camptothecin [1]: exhibit synergy with camptothecin
- IC50 (TDP2 [2]; [7]): > 100 µM
- TOP1 degrading activity (TOP1): exhibit TOP1 degrading activity

- inhibition at 100 µM (TDP1 [3]): > 90%
Compound: N#Cc1ccc(-c2ccc(C=NOCc3ccc4nc(-c5ccccc5)c(Nc5ccc(C(=O)O)cc5)n4c3)cc2)nc1 [Compound 105-D1, 4-((6-((((4-(5-cyanopyridin-2-yl)benzylidene)amino)oxy)methyl)-2-phenylimidazo[1,2-a]pyridin-3-yl)amino)benzoic acid]

- inhibition at 100 µM (TDP1 [3]): > 90%
- IC50 (TDP1 [4]; [8]): > 100 µM
Compound: Cc1cncc(Oc2ccc(C=NOCc3ccc4nc(-c5ccccc5)c(Nc5ccc(C(=O)O)cc5)n4c3)cc2)n1 [Compound 105-P3, 4-((6-((((4-((6-methylpyrazin-2-yl)oxy)benzylidene)amino)oxy)methyl)-2-phenylimidazo[1,2-a]pyridin-3-yl)amino)benzoic acid]

- TDP1 inhibition (TDP1 [3]): good inhibition
Compound: O=C(O)c1ccc(Nc2c(-c3ccc(CON=Cc4ccc(N5CCCC5=O)cc4)cc3)nc3cc(-c4ccccc4)ccn23)cc1 [Compound 106-B7, 4-((2-(4-((((4-(2-oxopyrrolidin-1-yl)benzylidene)amino)oxy)methyl)phenyl)-7-phenylimidazo[1,2-a]pyridin-3-yl)amino)benzoic acid]

- inhibition at 100 µM (TDP1 [3]): > 90%
Compound: N#Cc1ccc(-c2ccc(C=NOCc3ccc(-c4nc5cc(-c6ccccc6)ccn5c4Nc4ccc(C(=O)O)cc4)cc3)cc2)nc1 [Compound 106-D1, 4-((2-(4-((((4-(5-cyanopyridin-2-yl)benzylidene)amino)oxy)methyl)phenyl)-7-phenylimidazo[1,2-a]pyridin-3-yl)amino)benzoic acid]

- TDP1 inhibition (TDP1 [3]): good inhibition
Compound: O=C(O)c1ccc(Nc2c(-c3ccc(CON=Cc4ccc(-c5cnccn5)cc4)cc3)nc3cc(-c4ccccc4)ccn23)cc1 [Compound 106-E6, 4-((7-phenyl-2-(4-((((4-(pyrazin-2-yl)benzylidene)amino)oxy)methyl)phenyl)imidazo[1,2-a]pyridin-3-yl)amino)benzoic acid]

- TDP1 inhibition (TDP1 [3]): poor inhibition
Compound: O=C(O)c1ccc(Nc2c(-c3ccc(CON=Cc4ccc(-c5ccccc5)cc4)cc3)nc3cc(-c4ccccc4)ccn23)cc1 [Compound 106-M10, 4-((2-(4-(((([1,1′-biphenyl]-4-ylmethylene)amino)oxy)methyl)phenyl)-7-phenylimidazo[1,2-a]pyridin-3-yl)amino)benzoic acid]

- inhibition at 100 µM (TDP1 [3]): > 90%
Compound: Cc1cncc(Oc2ccc(C=NOCc3ccc(-c4nc5cc(-c6ccccc6)ccn5c4Nc4ccc(C(=O)O)cc4)cc3)cc2)n1 [Compound 106-P3, 4-((2-(4-((((4-((6-methylpyrazin-2-yl)oxy)benzylidene)amino)oxy)methyl)phenyl)-7-phenylimidazo[1,2-a]pyridin-3-yl)amino)benzoic acid]

- IC50 (TDP2 [2]; Table 10, PROTACs, read-out: TDP2 IC50): > 100 µM
- TOP1 degrading activity (TOP1): exhibit TOP1 degrading activity
- TDP1 degrading activity (TDP1 [5]): exhibit TDP1 degrading activity
Compound: Cc1ncsc1-c1ccc(CNC(=O)[C@@H]2C[C@@H](O)CN2C(=O)[C@@H](NC(=O)COCCOCCn2cc(COc3ccc(-c4nc5cc(-c6ccccc6)ccn5c4Nc4ccc(C(=O)O)cc4)cc3)nn2)C(C)(C)C)cc1 [XZ679, 4-((2-(4-((1-(2-(2-(2-(((S)-1-((2S,4R)-4-Hydroxy-2-((4-(4-methylthiazol-5-yl)benzyl)carbamoyl)pyrrolidin-1-yl)-3,3-dimethyl-1-oxobutan-2-yl)amino)-2-oxoethoxy)ethoxy)ethyl)-1H-1,2,3-triazol-4-yl)methoxy)phenyl)-7-phenylimidazo[1,2-a]pyridin-3-yl)amino)benzoic acid]

Compound: N#Cc1ccc(-c2ccc(/C=N/OCc3ccc(-c4nc5cc(-c6ccccc6)ccn5c4Nc4ccc(C(=O)O)cc4)cc3)cc2)nc1 [XZ701, (E)-4-((2-(4-((((4-(5-Cyanopyridin-2-yl)benzylidene)amino)oxy)methyl)phenyl)-7-phenylimidazo[1,2-a]pyridin-3-yl)amino)benzoic acid]
- synergy with camptothecin [1]: exhibit synergy with camptothecin
- IC50 (TDP2 [2]; [9]): 28.1 ± 8.9 µM
- selectivity against TDP1 than against TDP2 (TDP1 [4]): 74 fold
- FC (fold change) (TDP1 [4]; [10]): 74
- IC50 (TDP1 [4]; [11]): 0.38 ± 0.06 µM
- TDP1 inhibition relative to SMM lead 3 (TDP1 [4]; fold more than SMM lead 3): 10 fold
- IC50 (TDP1 [4]; [8]): 0.38 ± 0.06 µM
- TOP1 degrading activity (TOP1): exhibit TOP1 degrading activity
- TDP1 degrading activity (TDP1 [5]): exhibit TDP1 degrading activity
- TDP2 degrading activity (TDP2 [6]): exhibit TDP2 degrading activity

Compound: O=C(O)c1ccc(Nc2c(-c3ccc(CO/N=C/c4ccc(-c5cnccn5)cc4)cc3)nc3cc(-c4ccccc4)ccn23)cc1 [XZ702, (E)-4-((7-Phenyl-2-(4-((((4-(pyrazin-2-yl)benzylidene)amino)oxy)methyl)phenyl)imidazo[1,2-a]pyridin-3-yl)amino)benzoic acid]
- synergy with camptothecin [1]: exhibit synergy with camptothecin
- IC50 (TDP2 [2]; [9]): 8.8 ± 2.9 µM
- IC50 (TDP2 [2]; purified oximes, read-out: TDP2 IC50): 8.8 ± 2.9 µM
- FC (fold change) (TDP1 [4]; [10]): 3
- IC50 (TDP1 [4]; [8]): 3.1 ± 0.5 µM
- TDP2 degrading activity (TDP2 [6]): exhibit TDP2 degrading activity

Compound: N#Cc1ccc(-c2ccc(Cn3cc(-c4ccc(-c5nc6ccccn6c5Nc5ccc(C(=O)O)cc5)cc4)nn3)cc2)nc1 [XZ719, 4-((2-(4-(1-(4-(5-Cyanopyridin-2-yl)benzyl)-1H-1,2,3-triazol-4-yl)phenyl)imidazo[1,2-a]pyridin-3-yl)amino)benzoic acid]
- synergy with camptothecin [1]: exhibit synergy with camptothecin
- IC50 (TDP2 [2]; [7]): 62.4 ± 18.6 µM
- IC50 (TDP1 [4]; [11]): 21.6 ± 5 µM
- FC (fold change) (TDP1 [4]; [12]): 3
- TDP2 degrading activity (TDP2 [6]): exhibit TDP2 degrading activity

- IC50 (TDP2 [2]; [7]): 18 ± 1.2 µM
- IC50 (TDP1 [4]; [11]): 5.95 ± 1.25 µM
- FC (fold change) (TDP1 [4]; [12]): 3
- TOP1 degrading activity (TOP1): exhibit TOP1 degrading activity
- TDP1 degrading activity (TDP1 [5]): exhibit TDP1 degrading activity
- TDP2 degrading activity (TDP2 [6]): exhibit TDP2 degrading activity
Compound: N#Cc1ccc(-c2ccc(Cn3cc(-c4ccn5c(Nc6ccc(C(=O)O)cc6)c(-c6ccccc6)nc5c4)nn3)cc2)nc1 [XZ722, 4-((7-(1-(4-(5-Cyanopyridin-2-yl)benzyl)-1H-1,2,3-triazol-4-yl)-2-phenylimidazo[1,2-a]pyridin-3-yl)amino)benzoic acid]

Compound: O=C(O)c1ccc(Nc2c(-c3ccccc3OS(=O)(=O)F)nc3cc(-c4ccccc4)ccn23)cc1 [XZ730, 4-((2-(2-((Fluorosulfonyl)oxy)phenyl)-7-phenylimidazo[1,2-a]pyridin-3-yl)amino)benzoic acid]
- IC50 (TDP2 [2]): 39.5 µM
- inhibition of TDP2, primary screen (TDP2 [2]; 111 μM, preincubation with TDP2 at room temperature overnight): inhibition
- IC50 (TDP1 [4]): 17.8 µM
- inhibition of TDP1, primary screen (TDP1 [4]; 111 μM, preincubation with TDP1 at room temperature overnight): inhibition
- selectivity compared with TDP2, secondary screen (TDP1 [4]; preincubation overnight at room temperature): 2 fold
- inhibition, secondary screen (TDP1 [4]; preincubation with TDP overnight at room temperature): μM inhibition
- TDP1 degradation by covalent inhibitors (TDP1 [5]; FIG. 39): degrade TDP1
- TDP1 degrading activity (TDP1 [5]): exhibit TDP1 degrading activity
- TDP2 degrading activity (TDP2 [6]): exhibit TDP2 degrading activity

Reference: patent US20250011330A1, “Imidazo[1,2- a]pyrazine and Imidazo[1,2- a]pyridine Based Tyrosyl-DNA Phosphodiesterase I (TDP1) Inhibitors” (The USA, As Represented by the Secretary, Department of …, priority 2021, published 2025)
